Measurements from patent publication US12485132B2, “GPX4 inhibitors and senolytic compounds and uses thereof” (Rubedo Life Sciences, Inc., priority 2023, dated 2025).

Key:
Type in all cases: cell-based
senescent A549 cells = assay: Senescence assay: viability of senescent A549 cells; conditions: Homo sapiens, 24-72 hours incubation, viability by CellTiter-Glo or XTT, read-out: Absolute IC50 average A549_SEN IC50
Procedure: Cells were maintained in DMEM media (high glucose, 4 mM L-glutamine, no sodium pyruvate) supplemented with 10% fetal bovine serum in a humidified incubator at 37° C. with 5% carbon dioxide. Senescence was induced via treatment with a sublethal concentration of chemotherapy (bleomycin, gemcitabine, doxorubicin, 5-fluorouridine), followed by a rest period without chemotherapy similarly to what is reported by others in the field (e.g., Aoshiba et al., 2003 Eur Respir J 22:436-443). Senescence was qualified by low EdU (5-ethynyl-2′-deoxyuridine) incorporation and high SA-β-Gal (senescence-associated beta-galactosidase) staining compared to proliferating untreated cells. Senescent cells were plated into 96-well plates at a density of 5-15,000 cells/well. The next day, compounds were added in duplicate across ten different concentrations spanning roughly four Log10 units. Cells were incubated with the compounds for 24-72 hours, at which point viability was quantified using CellTiter-Glo (Promega) or XTT (R&D Systems). The viability for treated cells was determined relative to untreated control cells. The log of the compound concentration vs. normalized mean viability was fit to a four parameters Hill function with variable slope. The bottom was constrained to be greater than zero. The X mean value for Y=50 was interpolated to determine the absolute IC50. The results in Table 2 indicate that many of the compounds are active in cells and can induce a dose dependent decrease in the viability of senescent HEPG2 and A549 cells.

[1] = test system: senescent normal human dermal fibroblasts; assay: Rescue of compound-induced cell death by ferrostatin-1 in senescent fibroblasts; conditions: compounds at 1.11 μM, ferrostatin-1 at 0.375 and 6 μM; 24 hours; CellTiter-Glo
Description: Cell death induced by ferroptosis-inducing agents can be characterized by rescuing the cellular response with radical trapping agents that prevent the accumulation of phospholipid hydroperoxides (Stockwell et al., Cell Chem Biol 2020 27 (4): 365-375). As such, ferrostatin-1 was identified as a potent inhibitor of ferroptosis for which a free radical trapping mechanism had been reported (Skouta et al., J Am Chem Soc 2014 136 (12): 4551-6; Zika et al., ACS Cent Sci. 2017 3 (3): 232-243; and Miotto et al., Redox Biol. 2020; 101328). To determine whether compounds 18 and 32 induce ferroptosis in senescent cells, normal human dermal fibroblasts were induced to undergo senescence by treatment with a sublethal concentration of chemotherapy (bleomycin sulfate), followed by a rest period without chemotherapy similarly to previous reports (Aoshiba et al., 2003 3:436-43). Cells were maintained in DMEM media (high glucose, 4 mM L-glutamine, no sodium pyruvate) supplemented with 10% heat-inactivated fetal bovine serum in a humidified incubator at 37° C. with 5% carbon dioxide and 5% oxygen. Cellular senescence was qualified by reduced EdU (5-ethynyl-2′-deoxyuridine) incorporation and increased SA-β-Gal (senescence-associated beta-galactosidase) staining compared to proliferating untreated cells. Senescent fibroblasts were plated into 96-well plates at a density of 10,000 cells per well. The next day, ferrostatin-1 was diluted in cell medium to reach a final concentration of 0.375 and 6 μM and was added to cells. Approximately 30 minutes after the addition of ferrostatin-1, compounds 18 and 32 at 1.11 μM, or the peptidyl transfer inhibitor puromycin at 10 μM were added to cells. Cells were incubated with the compounds for 24 hours, at which point viability was quantified using the CellTiter-Glo assay (Promega). The viability for treated cells was determined relative to untreated control cells.

senescent HEPG2 cells = assay: Senescence assay: viability of senescent HEPG2 cells; conditions: Homo sapiens, 24-72 hours incubation, viability by CellTiter-Glo or XTT, read-out: Absolute IC50 average HEPG2_SEN IC50
Method in brief: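 A549 and HEPG2 cells made senescent by sublethal chemotherapy (bleomycin, gemcitabine, doxorubicin or 5-fluorouridine) plus recovery, verified by low EdU and high SA-β-Gal. Ten-point duplicate dosing for 24-72 h; viability by CellTiter-Glo or XTT versus untreated cells; absolute IC50 from four-parameter Hill fit.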

GPX4 = biological target: T1, GPX4 (Homo sapiens, UniProt P36969); assay: Competitive binding to GPX4 in A549 cells with biotinylated analog, streptavidin pull-down; design: host or cells: A549; conditions: 2 μM for 2 hours before 2 μM compound 21 for 5 hours
T1 sequence (P36969 1-197): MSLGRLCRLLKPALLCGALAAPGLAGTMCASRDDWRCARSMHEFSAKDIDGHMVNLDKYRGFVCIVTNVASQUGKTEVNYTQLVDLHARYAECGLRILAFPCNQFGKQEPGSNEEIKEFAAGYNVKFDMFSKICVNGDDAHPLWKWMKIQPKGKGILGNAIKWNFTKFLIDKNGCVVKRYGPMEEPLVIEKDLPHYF
Procedure: Binding of compounds 32 and 69 to the target protein GPX4 in cultured cells can be assessed by the use of biotinylated analogs such as compound 21 that retain their cellular activities. Cells or tissue simultaneously or sequentially exposed to compounds 32 and 69 and biotinylated analog 21 can be analyzed for exogenous biotinylated proteins and thereby enables the identification of cellular targets of compounds 32 and 69. The A549 cancer cell line (ATCC) was exposed to 2 μM of compounds 32 and 69 for 2 hours followed by the addition of 2 μM of compound 21 for 5 hours. Cells were collected and lysed by IGEPAL CA-630 and sodium dodecyl sulfate (SDS) in the presence of a protease inhibitor cocktail (4693132001, Roche). The soluble protein fraction was isolated and incubated with Streptavidin Mag Sepharose (28-9857-38, Cytiva) at 4° C. for 16 hours. The streptavidin-unbound fraction was collected allowing for the quantification of the proportion of GPX4 depleted by the biotinylated compound 21 relative to samples not treated with Streptavidin Mag Sepharose. Furthermore, biotinylated proteins were eluted from Streptavidin Mag Sepharose by head-denaturation in the presence of excess biotin (5 mM). […] Chemiluminescent following HRP substrate addition (34580, ThermoFisher) was detected by the ChemiDoc XRS+ System (Bio-Rad). […]

Row | IC50 (senescent A549 cells) | IC50 (senescent HEPG2 cells) | Structure (SMILES) | inhibition by ferrostatin-1 of compound-induced cell death [1] | effect of pre-treatment on compound 21 dependent depletion of GPX4 protein (GPX4)
1 | 10 to 100 nM | 0.1 to 10 nM | C#CC(F)(F)[C@]1(O)CC[C@H]2[C@@H]3CCC4=CC(=NOCCO)CCC4=C3[C@@H](c3ccc(C4CC4)cc3)C[C@@]21C [Compound 18, (8S,11R,13S,14S,17S)-11-(4-cyclopropylphenyl)-17-(1,1-difluoroprop-2-yn-1-yl)-17-hydroxy-13-methyl-1,2,6,7,8,11,12,13,14,15,16,17-dodecahydro-3H-cyclopenta[a]phenanthren-3-one O-(2-hydroxyethyl)oxime] | potently inhibits cell death induced by compounds 18 and 32 | 
2 |  |  | C#CC(F)(F)[C@]1(O)CC[C@H]2[C@@H]3CCC4=C/C(=N/NC(=O)NC5CC5)CCC4=C3[C@@H](c3ccc(C4CC4)cc3)C[C@@]21C [Compound 69, (E)-N-cyclopropyl-2-((8S,11R,13S,14S,17S)-11-(4-cyclopropylphenyl)-17-(1,1-difluoroprop-2-yn-1-yl)-17-hydroxy-13-methyl-1,2,6,7,8,11,12,13,14,15,16,17-dodecahydro-3H-cyclopenta[a]phenanthren-3-ylidene)hydrazine-1-carboxamide] |  | reduces the compound 21 dependent depletion of GPX4 protein
